Test results reported in patent US20260356817A1, “AMINOPYRIMIDINE AND AMINOTRIAZINE DERIVATIVES AS MYC PROTEIN MODULATORS” (Sanford Burnham Prebys Medical Discovery Institute, priority 2022, published 2026).
pIC50: −log10 of the molar value. Like-named read-outs stand apart in the source and are kept apart here.

How the values were obtained:
[1] = test system: Myc; assay: Myc inhibition assay: Myc expression per cell by anti-Myc immunofluorescence, high-content imaging; format: cell-based, human (patient-derived medulloblastoma xenograft cells)
Summary of the method: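 IC50 comes from high-content imaging of per-cell Myc immunostaining (DAPI-labelled nuclei) after 4 h compound exposure. Cells were freshly dissociated medulloblastoma PDX tumours, never passaged in vitro, grown in NSG mouse cerebellum, plated serum-free and recovered overnight before treatment.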

[2] = test system: retinoblastoma (Rb) protein; assay: Rb protein expression in PDX511 medulloblastoma cells (immunofluorescence); format: cell-based, human (patient-derived)
[3] = test system: PDX511 medulloblastoma cells; assay: Cell viability of PDX511 medulloblastoma cells at 4 hours; format: cell-based, human (patient-derived)
[4] = Table 1, medulloblastoma PDX cells, 4 h, read-out: IC50 (Myc inhibition)
[5] = Table 2, medulloblastoma PDX cells, 4 h, read-out: MYC Inhibition IC50

Row | Structure (SMILES) | pIC50 ([1]; read-out: Myc expression inhibition IC50, PDX511 medulloblastoma cells, 4 h (FIG. 2A)) | pIC50 [1, 4] | pIC50 [1, 5] | effect on expression of the retinoblastoma (Rb) protein [2] | effect on cell viability [3]
1 | Oc1cc(-c2ccnc(Nc3ncccn3)n2)ccn1 [Compound 184, 4-(2-(pyrimidin-2-ylamino)pyrimidin-4-yl)pyridin-2-ol] |  | 4.00 to 5.00 | 4.00 to 5.00 |  | 
2 | O=S(=O)(Nc1ccccc1F)c1cccc(Nc2nccc(-c3ccc4[nH]cnc4c3)n2)c1 [Compound 12, 3-((4-(1H-benzo[d]imidazol-5-yl)pyrimidin-2-yl)amino)-N-(2-fluorophenyl)benzenesulfonamide] |  | 6.00 to 6.70 | 6.00 to 6.70 |  | 
3 | Clc1ccc(Nc2nccc(-c3ccc4[nH]cnc4c3)n2)cc1Cl [Compound 98, 4-(1H-benzo[d]imidazol-5-yl)-N-(3,4-dichlorophenyl)pyrimidin-2-amine] |  | 6.00 to 6.70 | 6.00 to 6.70 |  | 
4 | c1coc(CNc2nccc(-c3ccc4[nH]cnc4c3)n2)c1 [Compound 85, 4-(1H-benzo[d]imidazol-5-yl)-N-(furan-2-ylmethyl)pyrimidin-2-amine] |  | 5.00 to 6.00 | 5.00 to 6.00 |  | 
5 | COc1cccc(-c2ccnc(Nc3ccccc3)n2)c1 [Compound 253, 4-(3-methoxyphenyl)-N-phenylpyrimidin-2-amine] |  | 4.00 to 5.00 | 4.00 to 5.00 |  | 
6 | Cc1ccc(Nc2nccc(-c3ccc4[nH]cnc4c3)n2)cc1 [Compound 103, 4-(1H-benzo[d]imidazol-5-yl)-N-(p-tolyl)pyrimidin-2-amine] |  | 6.00 to 6.70 | 6.00 to 6.70 |  | 
7 | CN(c1ccccc1)c1nccc(-c2cccc(O)n2)n1 [Compound 225, 6-(2-(methyl(phenyl)amino)pyrimidin-4-yl)pyridin-2-ol] |  | 4.00 to 5.00 | 4.00 to 5.00 |  | 
8 | Oc1cc(-c2ccnc(Sc3ccccc3)n2)ccn1 [Compound 231, 4-(2-(phenylthio)pyrimidin-4-yl)pyridin-2-ol] |  | 4.00 to 5.00 | 4.00 to 5.00 |  | 
9 | Cc1ccccc1Nc1nccc(-c2ccc3[nH]cnc3c2)n1 [Compound 51, 4-(1H-benzo[d]imidazol-5-yl)-N-(o-tolyl)pyrimidin-2-amine] |  | 5.00 to 6.00 | 5.00 to 6.00 |  | 
10 | Cc1cc(C)cc(Nc2nccc(-c3ccc4[nH]cnc4c3)n2)c1 [Compound 16, 4-(1H-benzo[d]imidazol-5-yl)-N-(3,5-dimethylphenyl)pyrimidin-2-amine] |  | > 6.70 | > 6.70 |  | 
11 | COc1cc(-c2ccnc(Nc3ccnc(C(F)(F)F)c3)n2)ccn1 [Compound 157, 4-(2-methoxypyridin-4-yl)-N-(2-(trifluoromethyl)pyridin-4-yl)pyrimidin-2-amine] |  | 4.00 to 5.00 | 4.00 to 5.00 |  | 
12 | Cc1c(-c2ccnc(Nc3cccc(C(F)(F)F)c3)n2)ccc2[nH]cnc12 [Compound 125, 4-(4-methyl-1H-benzo[d]imidazol-5-yl)-N-(3-(trifluoromethyl)phenyl)pyrimidin-2-amine] |  | 5.00 to 6.00 | 5.00 to 6.00 |  | 
13 | Cc1ccc(Nc2nccc(-c3ccc4[nH]cnc4c3)n2)cc1C(F)(F)F [Compound 265, 4-(1H-benzo[d]imidazol-5-yl)-N-(4-methyl-3-(trifluoromethyl)phenyl)pyrimidin-2-amine] |  | > 6.70 | > 6.70 |  | 
14 | COc1cccc(-c2cccc(Nc3ccccc3)n2)c1 [Compound 245, 6-(3-Methoxyphenyl)-N-phenylpyridin-2-amine] |  | 4.00 to 5.00 | 4.00 to 5.00 |  | 
15 | FC(F)(F)c1ccc(Nc2nccc(-c3ccc4[nH]cnc4c3)n2)cc1 [Compound 266, 4-(1H-benzo[d]imidazol-5-yl)-N-(4-(trifluoromethyl)phenyl)pyrimidin-2-amine] |  | 5.00 to 6.00 | 5.00 to 6.00 |  | 
16 | c1ccc(Cn2cc(Nc3nccc(-c4ccc5[nH]cnc5c4)n3)cn2)cc1 [Compound 37, 4-(1H-benzo[d]imidazol-5-yl)-N-(1-benzyl-1H-pyrazol-4-yl)pyrimidin-2-amine] |  | 6.00 to 6.70 | 6.00 to 6.70 |  | 
17 | c1cc(-c2ccc3[nH]cnc3c2)nc(Nc2ccc3sccc3c2)n1 [Compound 269, N-(benzo[b]thiophen-5-yl)-4-(1H-benzo[d]imidazol-5-yl)pyrimidin-2-amine] |  | 6.00 to 6.70 | 6.00 to 6.70 |  | 
18 | CN(c1ccccc1)c1nccc(-c2ccc(O)nc2)n1 [Compound 222, 5-(2-(methyl(phenyl)amino)pyrimidin-4-yl)pyridin-2-ol] |  | 4.00 to 5.00 | 4.00 to 5.00 |  | 
19 | CC(C)(C)c1cccc(Nc2nccc(-c3ccc4[nH]cnc4c3)n2)c1 [Compound 87, 4-(1H-benzo[d]imidazol-5-yl)-N-(3-(tert-butyl)phenyl)pyrimidin-2-amine] |  | 6.00 to 6.70 | 6.00 to 6.70 |  | 
20 | c1csc(Nc2nccc(-c3ccc4[nH]cnc4c3)n2)c1 [Compound 84, 4-(1H-benzo[d]imidazol-5-yl)-N-(thiophen-2-yl)pyrimidin-2-amine] |  | 5.00 to 6.00 | 5.00 to 6.00 |  | 
21 | O=S(=O)(NC1CC1)c1cccc(Nc2nccc(-c3ccc4[nH]cnc4c3)n2)c1 [Compound 24, 3-((4-(1H-benzo[d]imidazol-5-yl)pyrimidin-2-yl)amino)-N-cyclopropylbenzenesulfonamide] |  | 6.00 to 6.70 | 6.00 to 6.70 |  | 
22 | Oc1cc(-c2ccnc(Nc3ccncn3)n2)ccn1 [Compound 175, 4-(2-(pyrimidin-4-ylamino)pyrimidin-4-yl)pyridin-2-ol] |  | 4.00 to 5.00 | 4.00 to 5.00 |  | 
23 | O=S(=O)(c1cccc(Nc2nccc(-c3ccc4[nH]cnc4c3)n2)c1)C(F)(F)F [Compound 260, 4-(1H-benzo[d]imidazol-5-yl)-N-(3-((trifluoromethyl)sulfonyl)phenyl)pyrimidin-2-amine] |  | > 6.70 | > 6.70 |  | 
24 | Oc1cc(-c2ccnc(Nc3cccc(F)c3F)n2)ccn1 [Compound 205, 4-(2-((2,3-difluorophenyl)amino)pyrimidin-4-yl)pyridin-2-ol] |  | 5.00 to 6.00 | 5.00 to 6.00 |  | 
25 | CC(C)(C)c1cccc(Nc2nccc(-c3ccnc(O)c3)n2)c1 [Compound 149, 4-(2-((3-(tert-butyl)phenyl)amino)pyrimidin-4-yl)pyridin-2-ol] |  | 6.00 to 6.70 | 6.00 to 6.70 |  | 
26 | O=c1[nH]c2ccc(-c3ccnc(Nc4cccc(C(F)(F)F)c4)n3)cc2[nH]1 [Compound 116, 5-(2-((3-(trifluoromethyl)phenyl)amino)pyrimidin-4-yl)-1H-benzo[d]imidazol-2(3H)-one] |  | 4.00 to 5.00 | 4.00 to 5.00 |  | 
27 | NCCOc1cccc(Nc2nccc(-c3ccnc(O)c3)n2)c1 [Compound 120, 4-(2-((3-(2-aminoethoxy)phenyl)amino)pyrimidin-4-yl)pyridin-2-ol] |  | 5.00 to 6.00 | 5.00 to 6.00 |  | 

Second part, led by results:

Row | pIC50 ([1]; read-out: Myc expression inhibition IC50, PDX511 medulloblastoma cells, 4 h (FIG. 2A)) | pIC50 [1, 4] | pIC50 [1, 5] | Structure (SMILES) | effect on expression of the retinoblastoma (Rb) protein [2] | effect on cell viability [3]
28 | 4.93 |  |  | COc1ccc(Nc2nccc(-c3ccncc3)n2)cc1 [Compound A] | no effect | no effect
29 |  | 6.00 to 6.70 | 6.00 to 6.70 | COc1cncc(-c2ccnc(Nc3cccc(F)c3)n2)c1 [Compound 203, N-(3-fluorophenyl)-4-(5-methoxypyridin-3-yl)pyrimidin-2-amine] |  | 
30 |  | 6.00 to 6.70 | 6.00 to 6.70 | O=C(NC1CC1)c1cccc(Nc2nccc(-c3ccc4[nH]cnc4c3)n2)c1 [Compound 9, 3-((4-(1H-benzo[d]imidazol-5-yl)pyrimidin-2-yl)amino)-N-cyclopropylbenzamide] |  | 
31 |  | 6.00 to 6.70 | 6.00 to 6.70 | CC(C)(C)NS(=O)(=O)c1cccc(Nc2nccc(-c3ccc4[nH]cnc4c3)n2)c1 [Compound 32, 3-((4-(1H-benzo[d]imidazol-5-yl)pyrimidin-2-yl)amino)-N-(tert-butyl)benzenesulfonamide] |  | 
32 |  | 5.00 to 6.00 | 5.00 to 6.00 | Oc1cc(-c2ccnc(Nc3ccccc3)n2)ccn1 [Compound 251, 4-(2-(phenylamino)pyrimidin-4-yl)pyridin-2-ol] |  | 
33 |  | 4.00 to 5.00 | 4.00 to 5.00 | CN(c1ccccc1)c1ncnc(-c2ccnc(O)c2)n1 [Compound 215, 4-(4-(methyl(phenyl)amino)-1,3,5-triazin-2-yl)pyridin-2-ol] |  | 
34 |  | 5.00 to 6.00 | 5.00 to 6.00 | Cc1ccc(C)n1-c1cccc(Nc2nccc(-c3ccc4[nH]cnc4c3)n2)c1 [Compound 4, 4-(1H-benzo[d]imidazol-5-yl)-N-(3-(2,5-dimethyl-1H-pyrrol-1-yl)phenyl)pyrimidin-2-amine] |  | 
35 |  | 4.00 to 5.00 | 4.00 to 5.00 | COc1cc(-c2ccnc(Nc3ccccn3)n2)ccn1 [Compound 187, 4-(2-methoxypyridin-4-yl)-N-(pyridin-2-yl)pyrimidin-2-amine] |  | 
36 |  | 4.00 to 5.00 | 4.00 to 5.00 | CN(c1cccc(F)c1)c1nccc(-c2ccnc(O)c2)n1 [Compound 237, 4-(2-((3-fluorophenyl)(methyl)amino)pyrimidin-4-yl)pyridin-2-ol] |  | 
37 |  | 5.00 to 6.00 | 5.00 to 6.00 | FC(F)(F)c1cccc(Nc2nccc(-c3ccc4[nH]cnc4c3)n2)c1 [Compound 50] |  | 
38 |  | 5.00 to 6.00 | 5.00 to 6.00 | FC(F)(F)c1cc(Nc2nccc(-c3ccc4[nH]cnc4c3)n2)ccc1Cl [Compound 89, 4-(1H-benzo[d]imidazol-5-yl)-N-(4-chloro-3-(trifluoromethyl)phenyl)pyrimidin-2-amine] |  | 
39 |  | 5.00 to 6.00 | 5.00 to 6.00 | COc1cccc(Nc2nccc(-c3ccnc(OC)c3)n2)c1 [Compound 192, N-(3-methoxyphenyl)-4-(2-methoxypyridin-4-yl)pyrimidin-2-amine] |  | 
40 |  | 6.00 to 6.70 | 6.00 to 6.70 | Clc1ccc(Nc2nccc(-c3ccc4[nH]cnc4c3)n2)cc1 [Compound 86, 4-(1H-benzo[d]imidazol-5-yl)-N-(4-chlorophenyl)pyrimidin-2-amine] |  | 
